O=C(O)CCC(=O)C(=O)O
solubility (mole fraction)
Details | 278.15 K | 280.15 K | 282.15 K | 284.15 K | 286.15 K | 288.15 K | 293.15 K
in ethyl acetate | 0.0358 | 0.0374 | 0.0392 | 0.0418 | 0.0455 | 0.0494 | 0.0603
in n-butyl acetate | 0.0261 | 0.0284 | 0.0303 | 0.0337 | 0.0363 | 0.0391 | 0.0466
in water | 0.11 | 0.114 | 0.12 | 0.128 | 0.135 | 0.146 | 0.168
